# Measured values taken from PubChem BioAssay (NCI).
#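 These data come from cells grown in 96-well plates and exposed to compound for 48 hours at five concentrations. The concentration for full growth arrest is given as TGI.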
# Legend:
# Assay in all cases: NCI anticancer screen, dose series, 48 h
# [1] = tested on: M14 melanoma
# [2] = tested on: A498 renal
# [3] = tested on: UACC-257 melanoma
# [4] = tested on: EKVX NSCLC
# [5] = tested on: UACC-62 melanoma
# [6] = tested on: OVCAR-5 ovarian
# [7] = tested on: SF-295 CNS
# [8] = tested on: SK-OV-3 ovarian
# [9] = tested on: HOP-92 NSCLC
# [10] = tested on: RXF-631 renal
# [11] = tested on: MOLT-4 leukemia
# [12] = tested on: SK-MEL-28 melanoma
# [13] = tested on: HL-60(TB) leukemia
# [14] = tested on: OVCAR-8 ovarian
# [15] = tested on: HCT-116 colon
# [16] = tested on: IGROV1 ovarian
# [17] = tested on: TK-10 renal
# [18] = tested on: U251 CNS
# [19] = tested on: SR leukemia
# [20] = tested on: K-562 leukemia
# [21] = tested on: RXF 393 renal
# [22] = tested on: CCRF-CEM leukemia
# [23] = tested on: DMS 273 small cell lung
# [24] = tested on: KM12 colon
# [25] = tested on: SNB-19 CNS
# [26] = tested on: NCI-H460 lung
# [27] = tested on: HT29 colon
# [28] = tested on: ACHN renal
# [29] = tested on: SNB-78 CNS
# [30] = tested on: M19-MEL melanoma
# [31] = tested on: NCI-H23 lung
# [32] = tested on: NCI-H522 lung
# [33] = tested on: UO-31 renal
# [34] = tested on: KM20L2 colon
# [35] = tested on: HOP-62 NSCLC
# [36] = tested on: OVCAR-3 ovarian
# [37] = tested on: HCT-15 colon
# [38] = tested on: SF-539 CNS
# [39] = tested on: XF 498 CNS
# [40] = tested on: A549 NSCLC
# [41] = tested on: MALME-3M melanoma
# [42] = tested on: SW-620 colon
# [43] = tested on: HCC-2998 colon
# [44] = tested on: NCI-H226 lung
# [45] = tested on: SNB-75 CNS
# [46] = tested on: LXFL 529 NSCLC
# [47] = tested on: OVCAR-4 ovarian
# [48] = tested on: DLD-1 colon
# [49] = tested on: LOX IMVI melanoma
# [50] = tested on: SN12C renal
# [51] = tested on: SF-268 CNS
# [52] = tested on: DMS 114 small cell lung
structure (smiles),measurement,setting,value
CC(=O)O[C@H]1CCC(C)=CCC[C@@]2(C)C(CC[C@@H]2[C@@H](C)/C=C/C(C)C)c2ccc(cc2C(=O)O)C1 (stereo partly specified),TGI,[1],20.3 µM
same,TGI,[2],19.8 µM
same,TGI,[3],14.8 µM
same,TGI,[4],30.5 µM
same,TGI,[5],3.79 µM
same,TGI,[6],8.43 µM
same,TGI,[7],8.43 µM
same,TGI,[8],13.8 µM
same,TGI,[9],13.3 µM
same,TGI,[10],24.5 µM
same,TGI,[11],4.79 µM
same,TGI,[12],16.9 µM
same,TGI,[13],3.86 µM
same,TGI,[14],14 µM
same,TGI,[15],11.9 µM
same,TGI,[16],8.53 µM
same,TGI,[17],13.7 µM
same,TGI,[18],8.25 µM
same,TGI,[19],7.61 µM
same,TGI,[20],11.9 µM
same,TGI,[21],7.67 µM
same,TGI,[22],12.2 µM
same,TGI,[23],13.3 µM
same,TGI,[24],16.5 µM
same,TGI,[25],13 µM
same,TGI,[26],10.8 µM
same,TGI,[27],13.6 µM
same,TGI,[28],15.5 µM
same,TGI,[29],10.1 µM
same,TGI,[30],14 µM
same,TGI,[31],6.63 µM
same,TGI,[32],6.47 µM
same,TGI,[33],9.82 µM
same,TGI,[34],14.1 µM
same,TGI,[35],7.49 µM
O=C1NC2(CCCCC2)C2CCCCCC12 (stereo unspecified),TGI,[36],> 100 µM
same,TGI,[1],> 100 µM
same,TGI,[2],> 100 µM
same,TGI,[3],> 100 µM
same,TGI,[37],> 100 µM
same,TGI,[4],> 100 µM
same,TGI,[5],> 100 µM
same,TGI,[38],> 100 µM
same,TGI,[39],> 100 µM
same,TGI,[40],> 100 µM
same,TGI,[6],> 100 µM
same,TGI,[41],> 100 µM
same,TGI,[7],> 100 µM
same,TGI,[8],> 100 µM
same,TGI,[10],> 100 µM
same,TGI,[11],> 100 µM
same,TGI,[12],> 100 µM
same,TGI,[13],> 100 µM
same,TGI,[42],> 100 µM
same,TGI,[15],> 100 µM
same,TGI,[43],> 100 µM
same,TGI,[16],> 100 µM
same,TGI,[17],> 100 µM
same,TGI,[18],> 100 µM
same,TGI,[19],> 100 µM
same,TGI,[20],> 100 µM
same,TGI,[21],> 100 µM
same,TGI,[24],> 100 µM
same,TGI,[44],> 100 µM
same,TGI,[25],> 100 µM
same,TGI,[45],> 100 µM
same,TGI,[26],> 100 µM
same,TGI,[27],> 100 µM
same,TGI,[28],> 100 µM
same,TGI,[46],> 100 µM
same,TGI,[29],> 100 µM
same,TGI,[31],> 100 µM
same,TGI,[47],> 100 µM
same,TGI,[33],> 100 µM
same,TGI,[48],> 100 µM
same,TGI,[49],> 100 µM
same,TGI,[34],> 100 µM
same,TGI,[35],> 100 µM
same,TGI,[50],> 100 µM
same,TGI,[51],> 100 µM
same,TGI,[52],> 100 µM
